# Measured values published in the supplement of paper PMC10307832.
# How the values were obtained:
# Experiment in all cases: relative viability (nuclei count vs DMSO), 5 days (fraction); higher = more cells survive
# [1] = compound: CN1CCN(c2ccc3nc(-c4c(N)c5c(F)cccc5[nH]c4=O)[nH]c3c2)CC1 [Dovitinib]
# Method in brief: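 In 1536-well plates, lung cancer cell lines rested overnight at 37 °C before five library-drug doses (not always all listed), √10 apart, were pinned onto vehicle-anchored plates. Nuclei were counted with MetaXpress from 4× Hoechst images taken after 5 days without medium change. Viability compares treated-well with vehicle-well nuclei as a median over plates, and plates needed control CV below 25% plus at least one doubling to pass.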
# [2] = compound: CN1CCN(c2ccc3nc(-c4c(N)c5c(F)cccc5[nH]c4=O)[nH]c3c2)CC1 [Dovitinib] + CC(C)C[C@H](NC(=O)[C@H](Cc1ccccc1)NC(=O)c1cnccn1)B(O)O [Bortezomib] (partner 0.002 µM)
# Method in brief: (§1)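 Relative viability equals treated-well nuclei counts divided by vehicle-well nuclei counts. Counts came from 4× images of lung cancer cell lines grown in 1536-well plates for 5 days after pin-tool dosing on the day after seeding. Dosing used one drug alone or a fixed anchor-drug dose plus five library-drug doses (not always all listed) in √10 steps, and values are medians of duplicate plates.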
# [3] = compound: CN1CCN(c2ccc3nc(-c4c(N)c5c(F)cccc5[nH]c4=O)[nH]c3c2)CC1 [Dovitinib] + O=C(c1cc(Cc2n[nH]c(=O)c3ccccc23)ccc1F)N1CCN(C(=O)C2CC2)CC1 [Olaparib] (partner 8 µM)
# Method in brief: as §1
# [4] = compound: CN1CCN(c2ccc3nc(-c4c(N)c5c(F)cccc5[nH]c4=O)[nH]c3c2)CC1 [Dovitinib] + CS(=O)(=O)CCNCc1ccc(-c2ccc3ncnc(Nc4ccc(OCc5cccc(F)c5)c(Cl)c4)c3c2)o1 [Lapatinib] (partner 2 µM)
# Method in brief: as §1
# [5] = compound: CN1CCN(c2ccc3nc(-c4c(N)c5c(F)cccc5[nH]c4=O)[nH]c3c2)CC1 [Dovitinib] + COc1cc2c(Oc3ccc(NC(=O)C4(C(=O)Nc5ccc(F)cc5)CC4)cc3F)ccnc2cc1OCCCN1CCOCC1 [Foretinib] (partner 0.25 µM)
# Method in brief: as §1
# [6] = compound: CN1CCN(c2ccc3nc(-c4c(N)c5c(F)cccc5[nH]c4=O)[nH]c3c2)CC1 [Dovitinib] + C[C@@H](Oc1cc(-c2cnn(C3CCNCC3)c2)cnc1N)c1c(Cl)ccc(F)c1Cl [Crizotinib] (partner 1 µM)
# Method in brief: as §1
# [7] = compound: CN1CCN(c2ccc3nc(-c4c(N)c5c(F)cccc5[nH]c4=O)[nH]c3c2)CC1 [Dovitinib] + CC1(C)CCC(c2ccc(Cl)cc2)=C(CN2CCN(c3ccc(C(=O)NS(=O)(=O)c4ccc(N[C@H](CCN5CCOCC5)CSc5ccccc5)c(S(=O)(=O)C(F)(F)F)c4)cc3)CC2)C1 [Navitoclax] (partner 0.5 µM)
# Method in brief: as §1
# [8] = compound: CN1CCN(c2ccc3nc(-c4c(N)c5c(F)cccc5[nH]c4=O)[nH]c3c2)CC1 [Dovitinib] + C[C@]1(O)C[C@@H](c2nc(-c3ccc4ccc(-c5ccccc5)nc4c3)c3c(N)nccn32)C1 [Linsitinib] (partner 1 µM)
# Method in brief: as §1
# [9] = compound: CN1CCN(c2ccc3nc(-c4c(N)c5c(F)cccc5[nH]c4=O)[nH]c3c2)CC1 [Dovitinib] + Cc1nc(NC(=O)N2CCC[C@H]2C(N)=O)sc1-c1ccnc(C(C)(C)C(F)(F)F)c1 [Alpelisib] (partner 2 µM)
# Method in brief: as §1
# [10] = compound: CN1CCN(c2ccc3nc(-c4c(N)c5c(F)cccc5[nH]c4=O)[nH]c3c2)CC1 [Dovitinib] + CS(=O)(=O)N1CCN(Cc2cc3nc(-c4cccc5[nH]ncc45)nc(N4CCOCC4)c3s2)CC1 [Pictilisib] (partner 1 µM)
# Method in brief: as §1
# [11] = compound: CN1CCN(c2ccc3nc(-c4c(N)c5c(F)cccc5[nH]c4=O)[nH]c3c2)CC1 [Dovitinib] + N=C(N)NC(=N)NCCc1ccccc1 [Phenformin] (partner 250 µM)
# Method in brief: as §1
# [12] = compound: CN1CCN(c2ccc3nc(-c4c(N)c5c(F)cccc5[nH]c4=O)[nH]c3c2)CC1 [Dovitinib] + Nc1ncn([C@H]2C[C@H](O)[C@@H](CO)O2)c(=O)n1 [Decitabine] (partner 2 µM)
# Method in brief: as §1
cell line,measurement,setting,value
Calu-6,relative viability,[1]; 0.02 µM,0.977
same,relative viability,[1]; 0.06325 µM,1.01
same,relative viability,[1]; 0.2 µM,0.999
same,relative viability,[1]; 0.6325 µM,0.981
same,relative viability,[1]; 2 µM,0.959
same,relative viability,[2]; first compound 0.02 µM,1.05
same,relative viability,[2]; first compound 0.06325 µM,0.992
same,relative viability,[2]; first compound 0.2 µM,1
same,relative viability,[2]; first compound 0.6325 µM,0.993
same,relative viability,[2]; first compound 2 µM,0.98
same,relative viability,[3]; first compound 0.02 µM,0.572
same,relative viability,[3]; first compound 0.06325 µM,0.578
same,relative viability,[3]; first compound 0.2 µM,0.553
same,relative viability,[3]; first compound 0.6325 µM,0.571
same,relative viability,[3]; first compound 2 µM,0.809
same,relative viability,[4]; first compound 0.02 µM,0.99
same,relative viability,[4]; first compound 0.06325 µM,1.04
same,relative viability,[4]; first compound 0.2 µM,1.11
same,relative viability,[4]; first compound 0.6325 µM,1.08
same,relative viability,[4]; first compound 2 µM,1.09
same,relative viability,[5]; first compound 0.02 µM,0.925
same,relative viability,[5]; first compound 0.06325 µM,0.861
same,relative viability,[5]; first compound 0.2 µM,0.853
same,relative viability,[5]; first compound 0.6325 µM,0.874
same,relative viability,[5]; first compound 2 µM,0.912
same,relative viability,[6]; first compound 0.02 µM,0.674
same,relative viability,[6]; first compound 0.06325 µM,0.827
same,relative viability,[6]; first compound 0.2 µM,0.665
same,relative viability,[6]; first compound 0.6325 µM,0.847
same,relative viability,[6]; first compound 2 µM,0.779
same,relative viability,[7]; first compound 0.02 µM,0.828
same,relative viability,[7]; first compound 0.06325 µM,0.784
same,relative viability,[7]; first compound 0.2 µM,0.828
same,relative viability,[7]; first compound 0.6325 µM,0.813
same,relative viability,[7]; first compound 2 µM,0.782
same,relative viability,[8]; first compound 0.02 µM,0.947
same,relative viability,[8]; first compound 0.06325 µM,0.955
same,relative viability,[8]; first compound 0.2 µM,0.935
same,relative viability,[8]; first compound 0.6325 µM,0.93
same,relative viability,[8]; first compound 2 µM,0.887
same,relative viability,[9]; first compound 0.02 µM,0.943
same,relative viability,[9]; first compound 0.06325 µM,0.97
same,relative viability,[9]; first compound 0.2 µM,0.872
same,relative viability,[9]; first compound 0.6325 µM,0.925
same,relative viability,[9]; first compound 2 µM,1.01
same,relative viability,[10]; first compound 0.02 µM,0.931
same,relative viability,[10]; first compound 0.06325 µM,0.885
same,relative viability,[10]; first compound 0.2 µM,0.913
same,relative viability,[10]; first compound 0.6325 µM,0.893
same,relative viability,[10]; first compound 2 µM,1
A549,relative viability,[1]; 0.02 µM,0.964
same,relative viability,[1]; 0.06325 µM,1.04
same,relative viability,[1]; 0.2 µM,1.06
same,relative viability,[1]; 0.6325 µM,0.991
same,relative viability,[1]; 2 µM,0.966
same,relative viability,[3]; first compound 0.02 µM,0.301
same,relative viability,[3]; first compound 0.06325 µM,0.329
same,relative viability,[3]; first compound 0.2 µM,0.353
same,relative viability,[3]; first compound 0.6325 µM,0.458
same,relative viability,[3]; first compound 2 µM,0.353
same,relative viability,[4]; first compound 0.02 µM,1
same,relative viability,[4]; first compound 0.06325 µM,0.956
same,relative viability,[4]; first compound 0.2 µM,0.893
same,relative viability,[4]; first compound 0.6325 µM,0.817
same,relative viability,[4]; first compound 2 µM,0.887
same,relative viability,[5]; first compound 0.02 µM,0.943
same,relative viability,[5]; first compound 0.06325 µM,0.919
same,relative viability,[5]; first compound 0.2 µM,0.954
same,relative viability,[5]; first compound 0.6325 µM,0.985
same,relative viability,[5]; first compound 2 µM,0.975
same,relative viability,[6]; first compound 0.02 µM,0.702
same,relative viability,[6]; first compound 0.06325 µM,0.763
same,relative viability,[6]; first compound 0.2 µM,0.741
same,relative viability,[6]; first compound 0.6325 µM,0.694
same,relative viability,[6]; first compound 2 µM,0.733
same,relative viability,[11]; first compound 0.02 µM,0.145
same,relative viability,[11]; first compound 0.06325 µM,0.174
same,relative viability,[11]; first compound 0.2 µM,0.284
same,relative viability,[11]; first compound 0.6325 µM,0.113
same,relative viability,[11]; first compound 2 µM,0.201
same,relative viability,[7]; first compound 0.02 µM,1.21
same,relative viability,[7]; first compound 0.06325 µM,1.11
same,relative viability,[7]; first compound 0.2 µM,1.24
same,relative viability,[7]; first compound 0.6325 µM,1.19
same,relative viability,[7]; first compound 2 µM,1.14
same,relative viability,[8]; first compound 0.02 µM,0.654
same,relative viability,[8]; first compound 0.06325 µM,0.573
same,relative viability,[8]; first compound 0.2 µM,0.651
same,relative viability,[8]; first compound 0.6325 µM,0.586
same,relative viability,[8]; first compound 2 µM,0.632
same,relative viability,[12]; first compound 0.02 µM,0.225
same,relative viability,[12]; first compound 0.06325 µM,0.329
same,relative viability,[12]; first compound 0.2 µM,0.248
same,relative viability,[12]; first compound 0.6325 µM,0.292
same,relative viability,[12]; first compound 2 µM,0.237
same,relative viability,[9]; first compound 0.02 µM,0.802
same,relative viability,[9]; first compound 0.06325 µM,0.757
same,relative viability,[9]; first compound 0.2 µM,0.701
same,relative viability,[9]; first compound 0.6325 µM,0.801
same,relative viability,[9]; first compound 2 µM,0.671
same,relative viability,[10]; first compound 0.02 µM,0.412
same,relative viability,[10]; first compound 0.06325 µM,0.474
same,relative viability,[10]; first compound 0.2 µM,0.541
same,relative viability,[10]; first compound 0.6325 µM,0.488
same,relative viability,[10]; first compound 2 µM,0.463
